For test [1], the system named is human colon carcinoma cells WiDr. As to the kind of experiment: In vitro cell proliferation inhibitory activity (Table 1), colon carcinoma cells WiDr, MTT. It counts as cell-based. The note with it: 72 h, read-out: IC50, Colon carcinoma cells WiDr.
Test [2] has as its system human normal fetal pulmonary fibroblasts HEL. Briefly: In vitro cell proliferation inhibitory activity (Table 1), normal cells HEL, MTT. Type of test: cell-based. Conditions: Pulmonary fibroblast, 72 h, read-out: IC50, Normal cells HEL.
Test [3] concerns the target T1, mitochondrial membrane enzyme glutaminase (Homo sapiens, UniProt O94925).
T1 sequence (O94925 73-669 limits assumed): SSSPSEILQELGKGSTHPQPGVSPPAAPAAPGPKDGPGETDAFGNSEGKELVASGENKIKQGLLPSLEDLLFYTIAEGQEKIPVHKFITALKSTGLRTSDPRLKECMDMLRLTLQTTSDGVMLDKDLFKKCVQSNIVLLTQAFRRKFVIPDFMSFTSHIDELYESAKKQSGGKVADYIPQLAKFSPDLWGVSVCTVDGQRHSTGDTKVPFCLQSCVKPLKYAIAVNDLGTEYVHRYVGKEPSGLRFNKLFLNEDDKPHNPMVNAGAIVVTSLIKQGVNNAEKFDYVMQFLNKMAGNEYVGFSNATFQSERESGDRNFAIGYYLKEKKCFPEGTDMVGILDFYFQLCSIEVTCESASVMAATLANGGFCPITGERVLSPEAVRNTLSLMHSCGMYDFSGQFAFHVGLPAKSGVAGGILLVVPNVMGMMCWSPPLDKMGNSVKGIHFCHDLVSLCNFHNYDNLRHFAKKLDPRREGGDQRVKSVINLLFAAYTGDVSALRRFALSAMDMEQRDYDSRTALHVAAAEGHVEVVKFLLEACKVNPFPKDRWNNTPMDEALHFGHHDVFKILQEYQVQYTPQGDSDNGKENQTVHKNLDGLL
Briefly: Inhibitory activity against the mitochondrial membrane enzyme glutaminase (crude enzyme of WiDr cells). Type of test: biochemical. Conditions: WiDr mitochondrial fraction, tritium-labelled glutamine 0.8 μM, phosphoric acid 200 mM, pH 8.0, 37° C., 15 minutes; read-out: IC50, enzymatic activity of glutaminase.

Test [4] deals with large intestinal cancer cell strains. Briefly: Cell proliferation inhibitory tests, panel as a whole (selectivity in words). It counts as cell-based, human. Conditions: large intestinal cancer cells / tumor cells. On the procedure: A cellular suspension (50 μl, 2,000 cells) of the human colon carcinoma cells WiDr or human normal fetal pulmonary fibroblasts HEL was inoculated in a 96-well microplate, and incubated at 37° C. in a 5% carbonic acid gas incubator. The next day, a 2-fold serially diluted solution (50 μl) of each compound was added and incubated for 3 days. The culture broth containing the compound was removed, the cells were washed, MTT pigment solution was added, and the surviving cell number was determined (Tada et al., J. Immunol. Methods, 93, 157-165 (1986)). The cell amount in a control group not treated with the compound solution was used as a standard (100%). The ratio of the cell amount in each treated group to that in the control group was calculated, and the IC50 (i.e., a compound concentration required for decreasing the surviving cell amount to 50% of that in the control group) was calculated.
(§1) to that in the control group was calculated, and the IC50 (i.e., a compound concentration required for decreasing the surviving cell amount to 50% of that in the control group) was calculated.

For test [5], the system named is Colon carcinoma T84. Briefly: Cell proliferation inhibitory test (Table 2). Type of test: cell-based. Conditions: Colon carcinoma T84 (Table 2); read-out: IC50, cell strain T84. How it is done:
as §1

For test [6], the system named is Lung carcinoma A549. Briefly: Cell proliferation inhibitory test (Table 2). It counts as cell-based. The note with it: Homo sapiens; Lung carcinoma A549 (Table 2); read-out: IC50, cell strain A549. On the procedure:
as §1

Test [7] has as its system Breast carcinoma MDA-MB-453. As to the kind of experiment: Cell proliferation inhibitory test (Table 2). Type of test: cell-based. The note with it: Homo sapiens; Breast carcinoma MDA-MB-453 (Table 2); read-out: IC50, cell strain MDA-MB-453. How it is done:
as §1

The subject of test [8] is Colon carcinoma LoVo. Briefly: Cell proliferation inhibitory test (Table 2). Type of test: cell-based. Conditions: Homo sapiens; Colon carcinoma LoVo (Table 2); read-out: IC50, cell strain LoVo. On the procedure:
as §1

In test [9] the test system is Throat cancer KB. As to the kind of experiment: Cell proliferation inhibitory test (Table 2). Type of test: cell-based. Conditions: Throat cancer KB (Table 2); read-out: IC50, cell strain KB. On the procedure: as §1
Test [10] concerns Colon carcinoma WiDr. As to the kind of experiment: Cell proliferation inhibitory test (Table 2). It counts as cell-based. Conditions: Homo sapiens; Colon carcinoma WiDr (Table 2); read-out: IC50, cell strain WiDr. How it is done:
as §1

Test [11] concerns Colon carcinoma SW620. Briefly: Cell proliferation inhibitory test (Table 2). It counts as cell-based. The note with it: Homo sapiens, SW-620; Colon carcinoma SW620 (Table 2); read-out: IC50, cell strain SW620. On the procedure:
as §1

Test [12] deals with Colon carcinoma SW48. As to the kind of experiment: Cell proliferation inhibitory test (Table 2). Type of test: cell-based. Conditions: Homo sapiens; Colon carcinoma SW48 (Table 2); read-out: IC50, cell strain SW48. How it is done:
as §1

In test [13] the test system is Breast carcinoma Hs578T. Briefly: Cell proliferation inhibitory test (Table 2). Type of test: cell-based. Conditions: Homo sapiens, Hs-578T; Breast carcinoma Hs578T (Table 2); read-out: IC50, cell strain Hs578T. How it is done:
as §1

Test [14] concerns Colon carcinoma SW403. Briefly: Cell proliferation inhibitory test (Table 2). The note with it: Homo sapiens, SW-403; Colon carcinoma SW403 (Table 2); read-out: IC50, cell strain SW403. Type of test: cell-based. On the procedure: as §1
Test [15] deals with Colon carcinoma LS180. Briefly: Cell proliferation inhibitory test (Table 2). Type of test: cell-based. The note with it: Homo sapiens; Colon carcinoma LS180 (Table 2); read-out: IC50, cell strain LS180. On the procedure:
as §1

The subject of test [16] is Breast carcinoma SK-BR-3. As to the kind of experiment: Cell proliferation inhibitory test (Table 2). It counts as cell-based. Conditions: Homo sapiens; Breast carcinoma SK-BR-3 (Table 2); read-out: IC50, cell strain SK-BR-3. On the procedure: as §1
The subject of test [17] is Breast carcinoma T-47D. As to the kind of experiment: Cell proliferation inhibitory test (Table 2). It counts as cell-based. Conditions: Homo sapiens, T47D; Breast carcinoma T-47D (Table 2); read-out: IC50, cell strain T-47D. On the procedure:
as §1

Test [18] concerns Breast carcinoma MDA-MB-231. Briefly: Cell proliferation inhibitory test (Table 2). Type of test: cell-based. The note with it: Homo sapiens; Breast carcinoma MDA-MB-231 (Table 2); read-out: IC50, cell strain MDA-MB-231. On the procedure: as §1
The subject of test [19] is Colon carcinoma SW948. Briefly: Cell proliferation inhibitory test (Table 2). It counts as cell-based. Conditions: Homo sapiens; Colon carcinoma SW948 (Table 2); read-out: IC50, cell strain SW948. How it is done: as §1
The subject of test [20] is human colon carcinoma cells WiDr transplanted to nude mice. As to the kind of experiment: In vivo colon carcinoma inhibitory activity, WiDr transplanted to nude mice (Test Example 3). On the set-up: species or system human cells in Balb/C female nude mice. Conditions: oral; for Proliferation rate (tumor volume, treated/control): 3 times a day for 3 days, control = 100. On the procedure:
In vivo colon carcinoma inhibitory activity
The human colon carcinoma cells WiDr (5,000,000 cells) were subcutaneously transplanted to a thoracic part of each of Balb/C female nude mice (7 weeks of age). On the 5th day after the transplantation, the tumor size was measured. Five mice (per group) with almost the same tumor size were used for this experiment. Each of solutions of 2-amino-1-methylimidazole hydrochloride (50 mg/kg body weight, 100 mg/kg body weight and 200 mg/kg body weight) of the present invention in physiological saline was orally administered 3 times a day for 3 days. The day following the end of the administration, the tumor size was measured. The tumor volume was calculated from the following equation:
(§2) Tumor volume=(major axis)×(minor axis)×(minor axis)×(1/2)
(§3) The ratio of the tumor volume in the treated group to that in a control group to which physiological saline was administered was calculated as a proliferation rate.

For test [21] the test system is unchanged. As to the kind of experiment: Activity of a compound having a protective group at the 2-amino group, WiDr transplanted to nude mice (Test Example 4). It counts as in vivo, human cells in Balb/C female nude mice. Conditions: oral. How it is done: Activity of a compound having a protective group at the 2-amino group
The human colon carcinoma cells WiDr (5,000,000 cells) were subcutaneously transplanted to the thoracic parts of Balb/C female nude mice (7 weeks old). On the 5th day after the transplantation, the tumor cell size was measured. Five mice (per group) with almost the same tumor size were used for this experiment. A solution of 2-benzyloxycarbonylamino-1-methylimidazole hydrochloride (80 mg/kg body weight) of the present invention in physiological saline was orally administered 3 times a day for 3 days. The day following the end of the administration, the tumor cell size was measured. The tumor volume was calculated from the following equation:
as §2, §3

Where [22] appears, read: 3 days incubation, MTT (Table 1).
The mark [23] stands for this setting: HEL, 3 days incubation, MTT (Table 1).

≈ marks a conversion by molar mass, not a printed value. Where a name gives a salt, the structure may show the parent alone. Read-outs that look alike come from different tables or passages of the source. Some results are limits rather than exact numbers.

Regarding `Cn1ccnc1N=Cc1ccccc1` [Reference Example 7, N-(1-methylimidazol-2-yl)benzylideneamine], the IC50 in [1] (setting [22]) was 1.4 µg/mL (≈ 7.56 µM); in test [2] (setting [23]) it was more than 80 µg/mL.
Take `Nc1ncc[nH]1.O=S(=O)(O)O` [2-Aminoimidazole sulfate]: the IC50 is 12 µg/mL in test [1] and more than 80 µg/mL in test [2].
`COC(=O)[C@@H](N)CCC(=O)Nc1nccn1C` [Example 8, methyl (2S)-2-amino-4-[(1-methylimiazol-2-yl)carbamoyl]butyrate dihydrochloride]: the figures for the IC50 in test [1] (setting [22]) and in [2] (setting [23]) were 5 µg/mL and more than 80 µg/mL, respectively.
For `CCn1ccnc1N.Cl` [2-Amino-1-ethylimidazole hydrochloride], the IC50 in [1] (setting [22]) is 4.4 µg/mL; in test [2] (setting [23]) it was more than 80 µg/mL; in [3] it was 50 mM.
With `CN1CCN=C1N` [2-Amino-1-methylimidazoline hydrochloride], the half-maximal inhibitory concentration (IC50) is 1.4 µg/mL in test [1] (setting [22]), more than 80 µg/mL in test [2] (setting [23]) and 100 mM in test [3].
In the case of `COC(=O)[C@@H](N)Cn1ccnc1N` [Example 5, 3-(2-aminoimidazol-1-yl)-L-alanine methyl ester dihydrochloride], the IC50 in test [3] was found to be 40 mM.
On to `C=CCn1ccnc1N.Cl` [Example 1, 2-amino-1-(2-propenyl)imidazole hydrochloride], for which the IC50 is 4.2 µg/mL in test [1] (setting [22]) and more than 80 µg/mL in test [2] (setting [23]).
Consider `COc1ccc(C=Nc2nccn2C)cc1.Cl` [Reference Example 9, N-(1-methylimidazol-2-yl)-4-methoxybenzylideneamine hydrochloride], for which the IC50 is 2.2 µg/mL in [1] (setting [22]) and more than 80 µg/mL in test [2] (setting [23]).
On to `Cl.Cn1ccnc1N` [2-Amino-1-methylimidazole hydrochloride], for which the “Selective inhibition of proliferation (in words)” value in [4] is recorded as “selectively inhibits the proliferation of the large intestinal cancer cell strains”. Further, the IC50 in test [1] (setting [22]) is 1.1 µg/mL; in [5] it was 2.8 µg/mL; in test [6], 20 µg/mL; in [7] it was more than 80 µg/mL; in [8], 7.6 µg/mL; in test [9], more than 80 µg/mL. Besides, the IC50 in [10] came out at 1.1 µg/mL; in test [11], 11 µg/mL; in [12], 8.6 µg/mL; in test [13], 7 µg/mL; in test [14] it was 5.2 µg/mL; in test [15] it was 6.3 µg/mL. Moreover, the IC50 is more than 80 µg/mL in [16]; 13 µg/mL in [17]; more than 80 µg/mL in [18]; 3.9 µg/mL in test [19]; more than 80 µg/mL in [2] (setting [23]); 30 mM in test [3]. The “Proliferation rate (tumor volume, treated/control)” value in test [20] (50 mg/kg) is listed as 76%; in [20] (100 mg/kg), 64%; in test [20] (200 mg/kg), 49%. For the same compound, in [20] (nude mice), the “Inhibition of proliferation of transplanted WiDr (in words)” value was “inhibited the proliferation of the human colon carcinoma cell strain WiDr transplanted to the nude mice in a concentration-dependent manner”.
On to `COC(=O)[C@@H](N)CC(=O)Nc1nccn1C.Cl.Cl` [Example 13, methyl (2S)-2-amino-3-[(1-methylimidazol-2-yl)carbamoyl]propionate dihydrochloride], for which the IC50 was 11 µg/mL in test [1] (setting [22]) and more than 80 µg/mL in [2] (setting [23]).
Take `Cn1ccnc1NC(=O)CC[C@H](N)C(=O)O` [Example 9, (2S)-2-amino-4-[(1-methylimidazol-2-yl)carbamoyl]butyric acid]: the figures for the IC50 in test [1] (setting [22]) and in [2] (setting [23]) were 5 µg/mL (≈ 22.1 µM) and more than 80 µg/mL, respectively.
`Cn1ccnc1NC(=O)OCc1ccccc1` [Example 4, 2-benzyloxycarbonylamino-1-methylimidazole hydrochloride]: the “Proliferation rate (tumor volume, treated/control)” value in test [21] (80 mg/kg, 3 times a day for 3 days, control = 100) is on record as 70%. Also, the “Inhibition of proliferation of transplanted WiDr (in words)” value in [21] (nude mice) is recorded as “inhibited the proliferation of the human large intestinal cancer cell strain WiDr transplanted to nude mice”.

One may read the IC50 as the concentration needed to halve the response being measured.

(Values after patent publication US5552427A, “Glutaminase inhibitory compounds, compositions, and methods of use” (Takeda Chemical Industries, Ltd., priority 1993, dated 1996).)
